Results: the NIST ThermoML archive (doi:10.1016/j.fluid.2018.07.018)
± gives the expanded uncertainty stated by the source.

Conditions: Crystal; DTA

`CC(C)OC(=O)C(C)(C)Oc1ccc(C(=O)c2ccc(Cl)cc2)cc1` [fenofibrate] gave a Normal melting temperature of 82.00 ± 1.1 °C.
